Assay results taken from patent publication US20150166523A1, “BRANCHED CHAIN ALKYL HETEROAROMATIC RING DERIVATIVE” (TAISHO PHARMACEUTICAL CO., LTD., priority 2012, published 2015).

Legend:
[1] = target: T1, orexin-2 receptor (hOX2R) (Homo sapiens, UniProt O43614); assay: Measurement of orexin antagonistic activity (intracellular Ca2+ fluorescence, FDSS) on hOX2R; assay type: cell-based; settings: CHO cells forcibly expressing hOX2R; Fluo-4AM; ligand peptide (substituted human orexin-A) 3 nM; compound preincubated 30 minutes; read-out: IC50 Value OX2
T1 construct: expressed in transfected cells; host or cells: Chinese hamster ovary (CHO) cells
T1 sequence (O43614 1-444): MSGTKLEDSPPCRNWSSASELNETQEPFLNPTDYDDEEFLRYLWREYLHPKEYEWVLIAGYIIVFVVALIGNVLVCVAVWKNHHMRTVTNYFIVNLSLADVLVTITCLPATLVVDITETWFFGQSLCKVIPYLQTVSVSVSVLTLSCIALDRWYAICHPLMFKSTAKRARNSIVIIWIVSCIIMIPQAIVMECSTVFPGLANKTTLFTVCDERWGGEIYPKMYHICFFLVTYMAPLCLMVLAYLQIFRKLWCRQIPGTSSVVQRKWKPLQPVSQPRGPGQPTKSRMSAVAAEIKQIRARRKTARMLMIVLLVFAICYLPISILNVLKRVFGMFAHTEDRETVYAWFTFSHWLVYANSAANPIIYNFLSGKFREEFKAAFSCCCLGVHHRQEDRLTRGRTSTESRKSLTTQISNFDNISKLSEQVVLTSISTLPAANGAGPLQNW
Procedure: (§1) The antagonistic activities of the test compounds on human orexin-1 receptor (hOX1R) and orexin-2 receptor (hOX2R) were measured by modifying from the method described in literature (Toshikatsu Okumura et al., Biochemical and Biophysical Research Communications, 280, 976-981, 2001). Chinese hamster ovary (CHO) cells forcibly expressing the hOX1R and hOX2R were seeded into a 96 well Black clear bottom plate (Nunc) at 20,000 cells per well, which were cultured in Ham's F-12 medium containing 0.1 mM MEM non-essential amino acids, 0.5 mg/mL G418, 10% fetal bovine serum (all by Invitrogen) for 16 hours under the conditions of 37° C., 5% CO2. After removing the medium, 100 μL of 0.5 μM Fluo-4AM ester (Dojin) in an assay buffer (25 mM HEPES (Dojin), Hank's balanced salt solution (Invitrogen), 0.1% bovine serum albumin, 2.5 mM probenecid, 200 μg/mL Amaranth (all by Sigma-Aldrich), pH 7.4) was added and the cells were incubated for 60 minutes at 37° C., 5% CO2. After removing the assay buffer containing fluo-4AM ester, the test compound was dissolved in dimethyl sulfoxide to be 10 mM and diluted with the assay buffer, 150 μL, of which was added and incubated for 30 minutes.
(§2) The reaction was measured for the fluorescence intensity of each well every second for 3 minutes using Functional Drug Screening System (FDSS; Hamamatsu Photonics K.K.), and the antagonistic activity was determined using the maximum fluorescence intensity as the indicator of intracellular Ca2+ concentration.

[2] = target: T2, human orexin-1 receptor (hOX1R) (Homo sapiens, UniProt O43613); assay: Measurement of orexin antagonistic activity (intracellular Ca2+ fluorescence, FDSS) on hOX1R; assay type: cell-based; settings: CHO cells forcibly expressing hOX1R; Fluo-4AM; ligand peptide (substituted human orexin-A) 300 pM; compound preincubated 30 minutes; read-out: IC50 Value OX1
T2 construct: expressed in transfected cells; host or cells: Chinese hamster ovary (CHO) cells
T2 sequence (O43613 1-425): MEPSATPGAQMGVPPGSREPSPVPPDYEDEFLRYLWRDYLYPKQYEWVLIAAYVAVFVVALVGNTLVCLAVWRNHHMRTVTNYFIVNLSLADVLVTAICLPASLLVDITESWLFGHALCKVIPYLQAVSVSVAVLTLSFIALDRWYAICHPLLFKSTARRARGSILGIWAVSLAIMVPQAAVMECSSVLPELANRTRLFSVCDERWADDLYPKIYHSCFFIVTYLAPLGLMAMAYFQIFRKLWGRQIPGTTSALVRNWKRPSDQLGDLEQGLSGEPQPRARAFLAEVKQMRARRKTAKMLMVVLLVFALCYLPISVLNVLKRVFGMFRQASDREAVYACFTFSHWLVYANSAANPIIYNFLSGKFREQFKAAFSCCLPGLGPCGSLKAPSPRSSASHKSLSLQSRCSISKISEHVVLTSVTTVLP
Procedure: as §1, §2

SMILES	IC50 [1] [nM]	IC50 [2] [nM]
Cc1ccc(-n2nccn2)c(C(=O)N(CCO)[C@@H](C)Cn2ccc(-c3ccc(F)cn3)n2)c1 [Example 44, N-{(2S)-1-[3-(5-Fluoropyridin-2-yl)-1H-pyrazol-1-yl]propan-2-yl}-N-(2-hydroxyethyl)-5-methyl-2-(2H-1,2,3-triazol-2-yl)benzamide]	25.9	1.3
Cc1ccc(-n2nccn2)c(C(=O)N(C)[C@@H](C)Cc2noc(-c3ccc(F)cn3)n2)c1 [Example 45, N-{(2S)-1-[5-(5-Fluoropyridin-2-yl)-1,2,4-oxadiazol-3-yl]propan-2-yl}-N,5-dimethyl-2-(2H-1,2,3-triazol-2-yl)benzamide]	75.5	3.3
CCN(C(=O)c1cc(C)ccc1-n1nccn1)[C@@H](C)Cc1noc(-c2ccc(F)cn2)n1 [Example 47, N-Ethyl-N-{(2S)-1-[5-(5-fluoropyridin-2-yl)-1,2,4-oxadiazol-3-yl]propan-2-yl}-5-methyl-2-(2H-1,2,3-triazol-2-yl) benzamide]	9.5	0.8
CCN(C(=O)c1cc(C)ccc1-c1ncccn1)[C@@H](C)Cc1noc(-c2ccc(F)cn2)n1 [Example 48, N-Ethyl-N-{(2S)-1-[5-(5-fluoropyridin-2-yl)-1,2,4-oxadiazol-3-yl]propan-2-yl}-5-methyl-2-(pyrimidin-2-yl)benzamide]	28.2	0.9
CCN(C(=O)c1nc(C)ccc1-n1nccn1)[C@@H](C)Cc1noc(-c2ccc(F)cc2)n1 [Example 49, N-Ethyl-N-{(2S)-1-[5-(4-fluorophenyl)-1,2,4-oxadiazol-3-yl]propan-2-yl}-6-methyl-3-(2H-1,2,3-triazol-2-yl)pyridine-2-carboxamide]	32.2	1.1
CCN(C(=O)c1cc(F)ccc1-n1nccn1)[C@@H](C)Cc1noc(-c2ccc(F)cc2)n1 [Example 50, N-Ethyl-5-fluoro-N-{(2S)-1-[5-(4-fluorophenyl)-1,2,4-oxadiazol-3-yl]propan-2-yl}-2-(2H-1,2,3-triazol-2-yl) benzamide]	16.8	0.8
CCN(C(=O)c1ccccc1-n1nccn1)[C@@H](C)Cc1noc(-c2ccc(F)cc2)n1 [Example 51, N-Ethyl-N-{(2S)-1-[5-(4-fluorophenyl)-1,2,4-oxadiazol-3-yl]propan-2-yl}-2-(2H-1,2,3-triazol-2-yl)benzamide]	9.3	0.2
CCN(C(=O)c1nc(C)ccc1-c1ncccn1)[C@@H](C)Cc1noc(-c2ccc(F)cc2)n1 [Example 52, N-Ethyl-N-{(2S)-1-[5-(4-fluorophenyl)-1,2,4-oxadiazol-3-yl]propan-2-yl}-6-methyl-3-(pyrimidin-2-yl)pyridine-2-carboxamide]	376	9.2
CCN(C(=O)c1cc(F)ccc1-c1ncccn1)[C@@H](C)Cc1noc(-c2ccc(F)cc2)n1 [Example 53, N-Ethyl-5-fluoro-N-{(2S)-1-[5-(4-fluorophenyl)-1,2,4-oxadiazol-3-yl]propan-2-yl}-2-(pyrimidin-2-yl) benzamide]	75.6	6.6
CCN(C(=O)c1ccccc1-c1ncccn1)[C@@H](C)Cc1noc(-c2ccc(F)cc2)n1 [Example 54, N-Ethyl-N-{(2S)-1-[5-(4-fluorophenyl)-1,2,4-oxadiazol-3-yl]propan-2-yl}-2-(pyrimidin-2-yl)benzamide]	75.7	2
CCN(C(=O)c1cc(C)ccc1-c1ncccn1)[C@@H](C)Cc1noc(-c2ccc(F)cc2)n1 [Example 55, N-Ethyl-N-{(2S)-1-[5-(4-fluorophenyl)-1,2,4-oxadiazol-3-yl]propan-2-yl}-5-methyl-2-(pyrimidin-2-yl)benzamide]	9.4	1.4
CCN(C(=O)c1ccccc1-n1nccn1)[C@@H](C)Cc1noc(-c2ccc(F)cn2)n1 [Example 56, N-Ethyl-N-{(2S)-1-[5-(5-fluoropyridin-2-yl)-1,2,4-oxadiazol-3-yl]propan-2-yl}-2-(2H-1,2,3-triazol-2-yl)benzamide]	602	5
CCN(C(=O)c1cc(F)ccc1-n1nccn1)[C@@H](C)Cc1noc(-c2ccc(F)cn2)n1 [Example 57, N-Ethyl-5-fluoro-N-{(2S)-1-[5-(5-fluoropyridin-2-yl)-1,2,4-oxadiazol-3-yl]propan-2-yl}-2-(2H-1,2,3-triazol-2-yl) benzamide]	1080	5.1
CCN(C(=O)c1nc(C)ccc1-n1nccn1)[C@@H](C)Cc1noc(-c2ccc(F)cn2)n1 [Example 58, N-Ethyl-N-{(2S)-1-[5-(5-fluoropyridin-2-yl)-1,2,4-oxadiazol-3-yl]propan-2-yl}-6-methyl-3-(2H-1,2,3-triazol-2-yl) pyridine-2-carboxamide]	1620	22.2
Cc1ccc(-n2nccn2)c(C(=O)N(C)[C@@H](C)Cc2noc(-c3ccc(F)cc3)n2)c1 [Example 59, N-{(2S)-1-[5-(4-Fluorophenyl)-1,2,4-oxadiazol-3-yl]propan-2-yl}-N,5-dimethyl-2-(2H-1,2,3-triazol-2-yl) benzamide]	10.1	0.5
Cc1ccc(-c2ncccn2)c(C(=O)N(C)[C@@H](C)Cc2noc(-c3ccc(F)cc3)n2)c1 [Example 60, N-{(2S)-1-[5-(4-Fluorophenyl)-1,2,4-oxadiazol-3-yl]propan-2-yl}-N,5-dimethyl-2-(pyrimidin-2-yl)benzamide]	45	1.3
CCN(C(=O)c1cc(C)ccc1-n1nccn1)[C@@H](C)Cc1noc(-c2ccc(F)cc2)n1 [Example 61]	3.3	0.7
CCN(C(=O)c1cc(C)ccc1-n1nccn1)[C@@H](C)Cn1nnc(-c2ccc(F)cc2)n1 [Example 62, N-Ethyl-N-{(2S)-1-[5-(4-fluorophenyl)-2H-tetrazol-2-yl]propan-2-yl}-5-methyl-2-(2H-1,2,3-triazol-2-yl)benzamide]	2.3	0.7
COCCN(C(=O)c1cc(C)ccc1-n1nccn1)[C@@H](C)Cn1nnc(-c2ccc(F)cc2)n1 [Example 63, N-{(2S)-1-[5-(4-Fluorophenyl)-2H-tetrazol-2-yl]propan-2-yl}-N-(2-methoxyethyl)-5-methyl-2-(2H-1,2,3-triazol-2-yl)benzamide]	66.9	2.2
Cc1ccc(-n2nccn2)c(C(=O)N(CCO)[C@@H](C)Cn2nnc(-c3ccc(F)cc3)n2)c1 [Example 64, N-{(2S)-1-[5-(4-Fluorophenyl)-2H-tetrazol-2-yl]propan-2-yl}-N-(2-hydroxyethyl)-5-methyl-2-(2H-1,2,3-triazol-2-yl)benzamide]	47.9	1
CCN(C(=O)c1nc(C)ccc1-n1nccn1)[C@@H](C)Cn1nnc(-c2ccc(F)cc2)n1 [Example 65, N-Ethyl-N-{(2S)-1-[5-(4-fluorophenyl)-2H-tetrazol-2-yl]propan-2-yl}-6-methyl-3-(2H-1,2,3-triazol-2-yl)pyridine-2-carboxamide]	144	1.3
CCN(C(=O)c1cc(F)ccc1-n1nccn1)[C@@H](C)Cn1nnc(-c2ccc(F)cc2)n1 [Example 66, N-Ethyl-5-fluoro-N-{(2S)-1-[5-(4-fluorophenyl)-2H-tetrazol-2-yl]propan-2-yl}-2-(2H-1,2,3-triazol-2-yl) benzamide]	129	1.6
CCN(C(=O)c1ccccc1-n1nccn1)[C@@H](C)Cn1nnc(-c2ccc(F)cc2)n1 [Example 67]	75.9	1.8
